Measurements reported in PMC11840258, “Detection of chimeric alpha-defensin transcripts and peptides in mouse Paneth cells” (Frontiers in Immunology, 2025).
No end group written: not given here.

How the values were obtained:
Type in all cases: cell-based
[1] = tested on: Citrobacter rodentium strain ICC 169; experiment: Anti-bacterial activity assay (colony counts after peptide titration); settings: 1U = dose needed to kill 50% of the bacteria (IC50), peptide 20, 10, 4, 2 µg/ml, 4 h at 37°C, colonies counted on LB agar, logistic 4 parameter model (drda), means of two independent experiments
Description: (§1) Antimicrobial essays for the synthetic proteins were performed against Escherichia coli, Staphylococcus nepalensis, Enterococcus fecalis and Citrobacter rodentium. The first three species are common in small intestine in mice (where Paneth cells are relevant), while C. rodentium is a common pathogen in mice. To obtain cultures of the first three species, C57BL/6J mice were euthanized, ileum content harvested and diluted in sterile PBS and plated out on standard LB plates, overnight. Colonies were picked and species identified using Maldi-Toff [as previously described ([19])]. The relevant pure colonies of these three species were then grown on plates, identified once again, and grown in liquid LB and frozen at -80°C. The C. rodentium culture was strain ICC 169 and was obtained from ATCC.
(§2) Bacteria were grown in LB broth at 37°C in an incubation shaker (100rpm) until and OD between 0.8-1. For each peptide, a dilution set (800 µl/peptide) derived from the stock solution was prepared in such manner to obtain a final volume of 1 ml with peptide concentrations of 20 µg/ml, 10 µg/ml, 4 µg/ml and 2 µg/ml. Bacteria grown in LB broth where diluted to OD 0.2. For each bacterium, 200 µl of the OD 0.2 solution was added to each of the peptide dilutions and incubated at 37°C for four hours at 55 rpm. After incubation 100 µl of the incubated mixture was plated out on LB agar plates at two concentrations: undiluted and 1:10 diluted. The plates were incubated at 37°C overnight after which colonies per plate were counted and tabulated. The highest plated out concentration that still had individually distinguishable colonies was used.
(§3) The R package “drda” ([20]) was used to perform a dose-response analysis using the logistic 4 parameter model. The concentration that inhibits growth by 50%, IC50, was obtained from the models for each combination of bacterium and peptide and converted into per peptide specific activity.

[2] = tested on: Escherichia coli; experiment: as above; settings: 1U = dose needed to kill 50% of the bacteria (IC50); peptide 20, 10, 4, 2 µg/ml; 4 h at 37°C; colonies counted on LB agar; logistic 4 parameter model (drda); isolate from mouse ileum; means of two independent experiments
Description: as §1, §2, §3

[3] = tested on: Enterococcus fecalis; experiment: as above; settings: 1U = dose needed to kill 50% of the bacteria (IC50); peptide 20, 10, 4, 2 µg/ml; 4 h at 37°C; colonies counted on LB agar; logistic 4 parameter model (drda); isolate from mouse ileum; means of two independent experiments
Description: as §1, §2, §3

[4] = tested on: Staphylococcus nepalensis; experiment: as above; settings: 1U = dose needed to kill 50% of the bacteria (IC50); peptide 20, 10, 4, 2 µg/ml; 4 h at 37°C; colonies counted on LB agar; logistic 4 parameter model (drda); isolate from mouse ileum; means of two independent experiments
Description: as §1, §2, §3

[5] = tested on: E. coli, C. rodentium, S. nepalensis, E. fecalis; experiment: Anti-bacterial activity assay, over the four bacterial species; settings: 1U = dose needed to kill 50% of the bacteria (IC50)
Description: as §1
as §2, with “After incubation 100 µl of the incubated mixture was plated out on LB agar plates at two concentrations: undiluted and 1:10 diluted.” left out, “The highest plated out concentration that still had individually distinguishable colonies was used.” left out

Substance	Specific activity of cell killing, C. rodentium [1] [U/mg]	Specific activity of cell killing, E. coli [2] [U/mg]	Specific activity of cell killing, E. fecalis [3] [U/mg]	Specific activity of cell killing, S. nepalensis [4] [U/mg]	Specific activity of cell killing, Mean [5] [U/mg]
Defa24: custom-synthesized mature peptide of parental mouse α-defensin Defa24 (LRDLVCYCRARGCKGRERMNGTCSKGHLLYMLCC; ends and bridges not checked; cysteine pairing not given here; UniProt Q5G865 59-92, looked up)	77	122	23	8	58
Defa31: custom-synthesized mature peptide of parental mouse α-defensin Defa31 (PRCPPCPRCSWCPRCPTCPRCNCNPK; ends and bridges not checked; cysteine pairing not given here; UniProt P50715 66-91, looked up)	314	397	189	437	334
